Patent US12630547B2, “RAS protein degraders, pharmaceutical compositions thereof, and their therapeutic applications” (BioTheryX, Inc., priority 2019, dated 2026)

Key:
Type in all cases: cell-based
H23 cells = assay: Cell viability assay (CELLTITER-GLO), H23 cells; conditions: Table 4; 3 days
Protocol: (§1) MOLM-13 cells, MV-4-11 cells, H23, and H358 cells were independently cultured in RPMI 1640 media supplemented with 10% fetal bovine serum, streptomycin and penicillin. The cells were plated in white walled 96-well plates at 4,000 cells/well. The cells were incubated in DMSO (control) or a compound for 3 days at 37° C. under 5% CO2. A CELLTITER-GLO® reagent (100 μL) was then added to each well. After a 10 min incubation with shaking, luminescence was measured using an ENVISION® multimode plate reader.
(§2) IC50 values are summarized in Table 4, where “A” represents an IC50 value of no greater than 1 μM, “B” represents an IC50 value of greater than 1 μM and no greater than 5 μM, “C” represents an IC50 value of greater than 5 μM and no greater than 10 μM, and “D” represents an IC50 value of greater than 10 μM.

H358 cells = assay: Cell viability assay (CELLTITER-GLO), H358 cells; conditions: Table 4; 3 days
Protocol: as §1
In Tables 1 and 2, each compound was tested at 10 μM; and in Table 3, each compound was tested at 1 μM. In Tables 1 to 3, the cell viability values as % DMSO are reported as “A,” “B,” “C,” or “D;” where “A” represents a % viability value of less than 10%; “B” represents a % viability value of no less than 10% and less than 25%; “C” represents a % viability value of no less than 25% and less than 50%; and “D” represents a % viability value of no less than 50%. Compound A is
as §2

MOLM-13 cells = assay: Cell viability assay (CELLTITER-GLO), MOLM-13 cells; conditions: Homo sapiens, MOLM-13, 72 h; Table 2; compound at 10 μM, 3 days; read-out: Effect on MOLM-13 cell viability (% DMSO)
Summary of the method: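 MV-4-11 and MOLM-13 cells in RPMI 1640/10% FBS were seeded at 4,000 cells/well and exposed to compound (10 μM or 1 μM) or DMSO for 3 days at 37 °C, 5% CO2. CellTiter-Glo luminescence gave viability as % DMSO, binned into ranges A (<10%) through D (≥50%).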

Row | SMILES | Inhibition of H358 cells, IC50 (class) (H358 cells) | Inhibition of H23 cells, IC50 (class) (H23 cells) | viability at 10 µM (MOLM-13 cells) [%]
1 | C=C(Cl)C(=O)N1CCN(c2ncnc3c(F)c(-c4c(F)cccc4OC[C@H]4CC[C@H](CN5CCC(c6cc(F)cc7c6CN(C6CCC(=O)NC6=O)C7=O)CC5)CC4)c(Cl)cc23)CC1 (stereo partly drawn) [Compound 117, 3-(4-(1-(((1r,4r)-4-((2-(6-Chloro-4-(4-(2-chloroacryloyl)piperazin-1-yl)-8-fluoro-quinazolin-7-yl)-3-fluorophenoxy)methyl)cyclohexyl)methyl)piperidin-4-yl)-6-fluoro-1-oxoisoindolin-2-yl)piperidine-2,6-dione] | A′ | A′ | < 10
2 | CCC(=O)Oc1cccc(F)c1-c1c(Cl)cc2c3c(cnc2c1F)N(CCCCCCCN1CCC(c2cc(F)cc4c2CN(C2CCC(=O)NC2=O)C4=O)CC1)C(=O)[C@H]1CN(C(=O)CC)[C@H](C)CN31 (stereo partly drawn) [Compound 95, 2-((2R,4aR)-11-Chloro-6-(7-(4-(2-(2,6-dioxopiperidin-3-yl)-6-fluoro-1-oxoisoindolin-4-yl)piperidin-1-yl)heptyl)-9-fluoro-2-methyl-5-oxo-3-propionyl-2,3,4,4a,5,6-hexahydro-1H-pyrazino[1′,2′:4,5]pyrazino[2,3-c]quinolin-10-yl)-3-fluorophenyl propionate] | B′ | B′ | < 10
3 | C=CC(=O)N1CCN(c2ncnc3c(F)c(-c4cc(OCCCCCCCN5CCC(c6cc(F)cc7c6CN(C6CCC(=O)NC6=O)C7=O)CC5)ccc4F)c(Cl)cc23)CC1 (stereo not drawn) [Compound 90, 3-(4-(1-(7-(3-(4-(4-Acryloylpiperazin-1-yl)-6-chloro-8-fluoroquinazolin-7-yl)-4-fluorophenoxy)heptyl)piperidin-4-yl)-6-fluoro-1-oxoisoindolin-2-yl)piperidine-2,6-dione] | B′ | B′ | < 10
4 | C=CC(=O)N1CCN(c2ncnc3c(F)c(-c4c(F)cccc4OCCOCCOCCOCCNc4cccc5c4C(=O)N(C4CCC(=O)NC4=O)C5=O)c(Cl)cc23)CC1 (stereo not drawn) [Compound 23, 4-((2-(2-(2-(2-(2-(4-(4-Acryloylpiperazin-1-yl)-6-chloro-8-fluoroquinazolin-7-yl)-3-fluorophenoxy)ethoxy)ethoxy)ethoxy)ethyl)amino)-2-(2,6-dioxopiperidin-3-yl)isoindoline-1,3-dione] | B′ | B′ | < 10
5 | C=C(Cl)C(=O)N1C[C@@H]2C(=O)N(C)c3cnc4c(F)c(-c5c(F)cccc5OCCCCCCCN5CCC(c6cc(F)cc7c6CN(C6CCC(=O)NC6=O)C7=O)CC5)c(Cl)cc4c3N2C[C@H]1C (stereo partly drawn) [Compound 104, 3-(4-(1-(7-(2-((2R,4aR)-11-Chloro-3-(2-chloroacryloyl)-9-fluoro-2,6-dimethyl-5-oxo-2,3,4,4a,5,6-hexahydro-1H-pyrazino[1′,2′:4,5]pyrazino[2,3-c]quinolin-10-yl)-3-fluorophenoxy)-heptyl)piperidin-4-yl)-6-fluoro-1-oxoisoindolin-2-yl)piperidine-2,6-dione] | B′ | B′ | < 10
6 | C=C(Cl)C(=O)N1CCN(c2ncnc3c(F)c(-c4c(F)cccc4OCCCCCCCN4CCC(c5cc(F)cc6c5CN(C5CCC(=O)NC5=O)C6=O)CC4)c(Cl)cc23)C[C@H]1CC#N (stereo partly drawn) [Compound 102, 2-((2R)-4-(6-Chloro-7-(2-((7-(4-(2-(2,6-dioxopiperidin-3-yl)-6-fluoro-1-oxoisoindolin-4-yl)piperidin-1-yl)heptyl)oxy)-6-fluorophenyl)-8-fluoroquinazolin-4-yl)-1-(2-chloroacryloyl)-piperazin-2-yl)acetonitrile] | A′ | A′ | < 10
7 | C=CC(=O)N1CC(N2Cc3ccc(-c4cc(O)cc5ccccc45)cc3N(CCOCCOCCOCCNc3ccc4c(c3)C(=O)N(C3CCC(=O)NC3=O)C4=O)C2=O)C1 (stereo not drawn) [Compound 40, 5-((2-(2-(2-(2-(3-(1-Acryloylazetidin-3-yl)-7-(3-hydroxynaphthalen-1-yl)-2-oxo-3,4-dihydroquinazolin-1(2H)-yl)ethoxy)ethoxy)ethoxy)ethyl)amino)-2-(2,6-dioxopiperidin-3-yl)isoindoline-1,3-dione] | B′ | B′ | < 10

Now from value to compound, other results behind:

Row | Inhibition of H358 cells, IC50 (class) (H358 cells) | SMILES | Inhibition of H23 cells, IC50 (class) (H23 cells) | viability at 10 µM (MOLM-13 cells) [%]
8 | B′ | CCC(=O)N1CCN(c2ncnc3c(F)c(-c4c(F)cccc4OCCOCc4ccc(COCCN5CCC(c6cc(F)cc7c6CN(C6CCC(=O)NC6=O)C7=O)CC5)cc4)c(Cl)cc23)CC1 (stereo not drawn) [Compound 109, 3-(4-(1-(2-((4-((2-(2-(6-Chloro-8-fluoro-4-(4-propionylpiperazin-1-yl)quinazolin-7-yl)-3-fluorophenoxy)ethoxy)methyl)benzyl)oxy)ethyl)piperidin-4-yl)-6-fluoro-1-oxoisoindolin-2-yl)piperidine-2,6-dione] | B′ | < 10
9 | B′ | CC(=O)N1CCN(c2ncnc3c(F)c(-c4c(F)cccc4OCCCCCCCN4CCC(c5cc(F)cc6c5CN(C5CCC(=O)NC5=O)C6=O)CC4)c(Cl)cc23)CC1 (stereo not drawn) [Compound 99, 3-(4-(1-(7-(2-(4-(4-Acetylpiperazin-1-yl)-6-chloro-8-fluoroquinazolin-7-yl)-3-fluorophenoxy)heptyl)piperidin-4-yl)-6-fluoro-1-oxoisoindolin-2-yl)piperidine-2,6-dione] | B′ | < 10
10 | D′ | CCC(=O)N1CCN(c2ncnc3c(F)c(-c4c(F)cccc4OCCNCC(=O)N4CCC(C#Cc5cccc6c5CN(C5CCC(=O)NC5=O)C6=O)CC4)c(Cl)cc23)CC1 (stereo not drawn) [Compound 133, 3-(4-((1-((2-(2-(6-Chloro-8-fluoro-4-(4-propionylpiperazin-1-yl)quinazolin-7-yl)-3-fluorophenoxy)ethyl)glycyl)piperidin-4-yl)-1λ^5-ethynyl)-1-oxoisoindolin-2-yl)piperidine-2,6-dione] | D′ | ≥ 50
11 | A′ | C=CC(=O)N1CCN(c2ncnc3c(F)c(-c4c(F)cccc4OCCCCCCCN4CCC(c5scc6c5CN(C5CCC(=O)NC5=O)C6=O)CC4)c(Cl)cc23)CC1 (stereo not drawn) [Compound 70, 3-(1-(1-(7-(2-(4-(4-Acryloylpiperazin-1-yl)-6-chloro-8-fluoroquinazolin-7-yl)-3-fluorophenoxy)heptyl)piperidin-4-yl)-4-oxo-4H-thieno[3,4-c]pyrrol-5(6H)-yl)piperidine-2,6-dione] | B′ | < 10
12 | C′ | CCC(=O)N1CCN(c2ncnc3c(F)c(-c4c(F)cccc4OCCc4cn(CCN5CCC(c6cc(F)cc7c6CN(C6CCC(=O)NC6=O)C7=O)CC5)nn4)c(Cl)cc23)CC1 (stereo not drawn) [Compound 92, 3-(4-(1-(2-(4-(2-(2-(6-Chloro-8-fluoro-4-(4-propionylpiperazin-1-yl)quinazolin-7-yl)-3-fluorophenoxy)ethyl)-1H-1,2,3-triazol-1-yl)ethyl)piperidin-4-yl)-6-fluoro-1-oxoisoindolin-2-yl)piperidine-2,6-dione] | D′ | ≥ 50
13 | B′ | C=C(Cl)C(=O)N1CCN(c2ncnc3c(F)c(-c4c(F)cccc4OCCCCCCCCCN4CCC(c5cc(F)cc6c5CN(C5CCC(=O)NC5=O)C6=O)CC4)c(Cl)cc23)CC1 (stereo not drawn) [Compound 113, 3-(4-(1-(9-(2-(6-Chloro-4-(4-(2-chloroacryloyl)piperazin-1-yl)-8-fluoroquinazolin-7-yl)-3-fluorophenoxy)nonyl)piperidin-4-yl)-6-fluoro-1-oxoisoindolin-2-yl)piperidine-2,6-dione] | B′ | < 10
14 | B′ | C=C(Cl)C(=O)N1CCN(c2ncnc3c(F)c(-c4c(F)cccc4OCCCCCCCN4CCC(c5cc(F)cc6c5CN(C5CCC(=O)NC5=O)C6=O)C4)c(Cl)cc23)CC1 (stereo not drawn) [Compound 112, 3-(4-(1-(7-(2-(6-Chloro-4-(4-(2-chloroacryloyl)piperazin-1-yl)-8-fluoroquinazolin-7-yl)-3-fluorophenoxy)heptyl)pyrrolidin-3-yl)-6-fluoro-1-oxoisoindolin-2-yl)piperidine-2,6-dione] | A′ | < 10
